According to US20110015069A1, “Herbicidal Compositions Comprising Pyroxasulfone IV” (BASF SE, priority 2008, published 2011):
Read-outs that look alike come from different tables or passages of the source.

Assays:
[1] = tested on: Capsella bursa-pastoris (CAPBP); assay: greenhouse post-emergence herbicidal activity; format: in vivo; conditions: 20 DAT
Text: (§1) For the post-emergence treatment, the test plants were first grown to a height of 3 to 20 cm, depending on the plant habit, and only then treated. Here, the herbicidal compositions were suspended or emulsified in water as distribution medium and sprayed using finely distributing nozzles.
(§2) The respective herbicides A and/or safener were formulated as 10% by weight strength emulsion concentrate and introduced to the spray liquor with the amount of solvent system used for applying the active compound. In the examples, the solvent used was water. Herbicide B and/or safener were used as commercially available formulations and introduced to the spray liquor with the amount of solvent system used for applying the active compound. In the examples, the solvent used was water.
(§3) Metazachlor was used as a commercial aqueous suspension concentrate having an active ingredient concentration of 500 g/l.
(§4) The test period extended over 21 days. During this time, the plants were tended, and their response to the treatments with active compound was evaluated.
(§5) The evaluation for the damage caused by the chemical compositions was carried out using a scale from 0 to 100%, compared to the untreated control plants. Here, 0 means no damage and 100 means complete destruction of the plants.
(§6) The value E, which is to be expected if the activity of the individual compounds is just additive, was calculated using the method of S. R. Colby (1967) “Calculating synergistic and antagonistic responses of herbicide combinations”, Weeds 15, p. 22 ff.
(§7) where X=effect in percent using herbicide A at an application rate a; • Y=effect in percent using herbicide B at an application rate b; • E=expected effect (in %) of A+B at application rates a+b.
(§8) If the value observed in this manner is higher than the value E calculated according to Colby, a synergistic effect is present.

[2] = tested on: Matricaria inermis (MATIN); assay: greenhouse post-emergence herbicidal activity; format: in vivo; conditions: 20 DAT
Text: as §1, §2, §3, §4, §5, §6, §7, §8

[3] = tested on: Veronica persica (VERPE); assay: greenhouse post-emergence herbicidal activity; format: in vivo; conditions: 20 DAT
Text: as §1, §2, §3, §4, §5, §6, §7, §8

[4] = tested on: Viola arvensis (VIOAR); assay: greenhouse post-emergence herbicidal activity; format: in vivo; conditions: for inhibition at 94 g/ha / inhibition at 25 g/ha / inhibition at 100 g/ha: Viola arvensis, read-out: observed % activity; for observed activity in % destruction 20 days after treatment: 20 DAT (Table 3)
Text: as §1, §2, §3, §4, §5, §6, §7, §8

[5] = tested on: Thlaspi arvense (THLAR); assay: greenhouse pre-emergence herbicidal activity; format: in vivo; conditions: read-out: observed % activity; for inhibition at 47 g/ha: metazachlor 47 g ai/ha; for inhibition at 94 g/ha: metazachlor 94 g ai/ha; for inhibition at 187 g/ha: metazachlor 187 g ai/ha; for inhibition at 6.25 g/ha: pyroxasulfone 6.25 g ai/ha; for inhibition at 12.5 g/ha: pyroxasulfone 12.5 g ai/ha; for inhibition at 25 g/ha: pyroxasulfone 25 g ai/ha; for inhibition at 50 g/ha: pyroxasulfone 50 g ai/ha
Text: (§9) For the pre-emergence treatment, directly after sowing the active compounds, which had been suspended or emulsified in water, were applied by means of finely distributed nozzles. The containers were irrigated gently to promote germination and growth and subsequently covered with transparent plastic hoods until plant had rooted. This cover caused uniform germination of the tests plants, unless this was adversely affected by active compounds.
as §2, §3, §4, §5, §6, §7, §8

[6] = tested on: Capsella bursa-pastoris (CAPBP); assay: greenhouse pre-emergence herbicidal activity; format: in vivo; conditions: read-out: observed % activity; for inhibition at 47 g/ha: metazachlor 47 g ai/ha; for inhibition at 94 g/ha: metazachlor 94 g ai/ha; for inhibition at 6.25 g/ha: pyroxasulfone 6.25 g ai/ha; for inhibition at 25 g/ha: pyroxasulfone 25 g ai/ha; for inhibition at 50 g/ha: pyroxasulfone 50 g ai/ha
Text: as §9, §2, §3, §4, §5, §6, §7, §8

[7] = tested on: Matricaria inermis (MATIN); assay: greenhouse pre-emergence herbicidal activity; format: in vivo; conditions: read-out: observed % activity; for inhibition at 47 g/ha: metazachlor 47 g ai/ha; for inhibition at 6.25 g/ha: pyroxasulfone 6.25 g ai/ha; for inhibition at 25 g/ha: pyroxasulfone 25 g ai/ha
Text: as §9, §2, §3, §4, §5, §6, §7, §8

[8] = tested on: Galium aparine (GALAP); assay: greenhouse pre-emergence herbicidal activity; format: in vivo; conditions: read-out: observed % activity; for inhibition at 47 g/ha: metazachlor 47 g ai/ha; for inhibition at 50 g/ha: pyroxasulfone 50 g ai/ha
Text: as §9, §2, §3, §4, §5, §6, §7, §8

[9] = tested on: Bromus inermis (BROIN); assay: greenhouse pre-emergence herbicidal activity; format: in vivo; conditions: read-out: observed % activity; for inhibition at 47 g/ha: metazachlor 47 g ai/ha; for inhibition at 12.5 g/ha: pyroxasulfone 12.5 g ai/ha; for inhibition at 25 g/ha: pyroxasulfone 25 g ai/ha
Text: as §9, §2, §3, §4, §5, §6, §7, §8

[10] = known from Y. Yamaji et al., 2006; cited from earlier work

## Cc1cccc(C)c1N(Cn1cccn1)C(=O)CCl [metazachlor]
[1]; metazachlor 94 g ai/ha
  observed activity in % destruction 20 days after treatment: 45%
[2]; metazachlor 187 g ai/ha
  observed activity in % destruction 20 days after treatment: 60%
[2]; metazachlor 750 g ai/ha
  observed activity in % destruction 20 days after treatment: 80%
[3]; metazachlor 94 g ai/ha
  observed activity in % destruction 20 days after treatment: 60%
[3]; metazachlor 187 g ai/ha
  observed activity in % destruction 20 days after treatment: 80%
[4]; 168 h, metazachlor 94 g ai/ha, 7 DAT
  inhibition at 94 g/ha: 30%
[4]; 480 h, metazachlor 94 g ai/ha, 20 DAT
  inhibition at 94 g/ha: 0%
[4]; metazachlor 94 g ai/ha
  observed activity in % destruction 20 days after treatment: 0%
[5]; 192 h, 8 DAT
  inhibition at 47 g/ha: 20%
  inhibition at 94 g/ha: 30%
  inhibition at 187 g/ha: 45%
[5]; 480 h, 20 DAT
  inhibition at 47 g/ha: 0%
  inhibition at 94 g/ha: 0%
  inhibition at 187 g/ha: 30%
[6]; 192 h, 8 DAT
  inhibition at 47 g/ha: 40%
  inhibition at 94 g/ha: 40%
[6]; 480 h, 20 DAT
  inhibition at 47 g/ha: 70%
  inhibition at 94 g/ha: 80%
[7]; 192 h, 8 DAT
  inhibition at 47 g/ha: 20%
[7]; 480 h, 20 DAT
  inhibition at 47 g/ha: 35%
[8]; 192 h, 8 DAT
  inhibition at 47 g/ha: 30%
[8]; 480 h, 20 DAT
  inhibition at 47 g/ha: 35%
[9]; 192 h, 8 DAT
  inhibition at 47 g/ha: 35%
[9]; 480 h, 20 DAT
  inhibition at 47 g/ha: 30%

## Cn1nc(C(F)(F)F)c(CS(=O)(=O)C2=NOC(C)(C)C2)c1OC(F)F [pyroxasulfone, 3-[5-(difluoromethoxy)-1-methyl-3-(trifluoromethyl)pyrazol-4-ylmethylsulfonyl]-4,5-dihydro-5,5-dimethyl-1,2-oxazole]
[1]; pyroxasulfone 25 g ai/ha
  observed activity in % destruction 20 days after treatment: 35%
[2]; pyroxasulfone 25 g ai/ha
  observed activity in % destruction 20 days after treatment: 0%
[2]; pyroxasulfone 50 g ai/ha
  observed activity in % destruction 20 days after treatment: 0%
[2]; pyroxasulfone 100 g ai/ha
  observed activity in % destruction 20 days after treatment: 20%
[3]; pyroxasulfone 100 g ai/ha
  observed activity in % destruction 20 days after treatment: 90%
[4]; 168 h, pyroxasulfone 25 g ai/ha, 7 DAT
  inhibition at 25 g/ha: 0%
[4]; 168 h, pyroxasulfone 100 g ai/ha, 7 DAT
  inhibition at 100 g/ha: 50%
[4]; 480 h, pyroxasulfone 25 g ai/ha, 20 DAT
  inhibition at 25 g/ha: 0%
[4]; 480 h, pyroxasulfone 100 g ai/ha, 20 DAT
  inhibition at 100 g/ha: 65%
[4]; pyroxasulfone 25 g ai/ha
  observed activity in % destruction 20 days after treatment: 0%
[4]; pyroxasulfone 100 g ai/ha
  observed activity in % destruction 20 days after treatment: 65%
[10]
  post-emergence activity: poor
[5]; 192 h, 8 DAT
  inhibition at 6.25 g/ha: 30%
  inhibition at 12.5 g/ha: 40%
  inhibition at 25 g/ha: 60%
  inhibition at 50 g/ha: 60%
[5]; 480 h, 20 DAT
  inhibition at 6.25 g/ha: 20%
  inhibition at 12.5 g/ha: 30%
  inhibition at 25 g/ha: 80%
  inhibition at 50 g/ha: 80%
[6]; 192 h, 8 DAT
  inhibition at 6.25 g/ha: 40%
  inhibition at 25 g/ha: 60%
  inhibition at 50 g/ha: 60%
[6]; 480 h, 20 DAT
  inhibition at 6.25 g/ha: 40%
  inhibition at 25 g/ha: 95%
  inhibition at 50 g/ha: 95%
[7]; 192 h, 8 DAT
  inhibition at 6.25 g/ha: 0%
  inhibition at 25 g/ha: 20%
[7]; 480 h, 20 DAT
  inhibition at 6.25 g/ha: 20%
  inhibition at 25 g/ha: 50%
[8]; 192 h, 8 DAT
  inhibition at 50 g/ha: 60%
[8]; 480 h, 20 DAT
  inhibition at 50 g/ha: 80%
[9]; 192 h, 8 DAT
  inhibition at 12.5 g/ha: 50%
  inhibition at 25 g/ha: 50%
[9]; 480 h, 20 DAT
  inhibition at 12.5 g/ha: 50%
  inhibition at 25 g/ha: 60%
